≈ marks a conversion by molar mass, not a printed value. Where “and” joins values, the source holds several entries; their conditions need not be identical. Equal values may be shown once. Read-outs that look alike come from different tables or passages of the source.
How the values were obtained:
Enterococcus faecalis = assay: MIC, broth microdilution (Example 1); format: cell-based
Experimental: (§1) Stock solutions of all antibacterial agents were prepared at 80-fold (80×) the final target concentration in the appropriate solvent and the solution was allowed to stand for 60 minutes. All antibacterial agents were in solution under these conditions. The final drug concentrations in the FIC assay plates were set to bracket the MIC value of each agent for each test organism, unless the strain was totally resistant to the test agent.
(§2) The test organisms were originally received from clinical sources, or from the American Type Culture Collection. Upon receipt, the isolates were streaked onto the appropriate growth medium: Chocolate Agar for H. influenzae, Tryptic Soy Agar II (Becton Dickinson, Sparks, Md.) supplemented with 5% defibrinated sheep blood for streptococci, and unsupplemented Tryptic Soy Agar II for all other organisms. Colonies were harvested from these plates and a cell suspension was prepared in Tryptic Soy Broth (Becton Dickinson) containing cryoprotectant. Aliquots were then frozen at −80° C. On the day prior to assay, the frozen seeds of the organisms to be tested in that session were thawed and streaked for isolation onto the appropriate agar medium plates and incubated overnight at 35° C.
(§3) The test medium for H. influenzae was Haemophilus Test Medium. Streptococci were tested in Mueller Hinton II Broth (Becton Dickinson; Lot 6235472) supplemented with 2% lysed horse blood (Cleveland Scientific, Bath, Ohio; Lot H88621). All other organisms were tested in Mueller Hinton II Broth (Becton Dickinson, Lot 6235472). The broth was prepared at 1.05× normal weight/volume to offset the 5% volume of the drugs in the final test plates.
(§4) In order to select the proper test concentrations for each drug combination, minimal inhibitory concentration (MIC) values were first determined using the broth microdilution method previously described (Clinical and Laboratory Standards Institute. Methods for Dilution Antimicrobial Susceptibility Tests for Bacteria That Grow Aerobically; Approved Standard—Seventh Edition. Clinical and Laboratory Standards Institute document M7-A7 [ISBN 1-56238-587-9]. Clinical and Laboratory Standards Institute, 940 West Valley Road, Suite 1400, Wayne, Pa. 19087-1898 USA, 2006).
(§5) The wells of standard 96-well microdilution plates (Falcon 3918) were filled with 150 μL of 100% DMSO using the Multidrop 384. These plates were used to prepare the drug “mother plates” which provided the serial drug dilutions for the drug combination plates. The Biomek 2000 was used to transfer 150 μl of each stock solution (80×) from the wells in Column 1 of a deep well plate to the corresponding wells in Column 1 of the mother plate and to make seven 2-fold serial dilutions. Two mother plates, one for each drug, were combined to form a “checkerboard” pattern by transfer of equal volumes (using a multi-channel pipette) to the drug combination plate. Row H and Column 8 each contained serial dilutions of one of the agents alone for determination of the MIC.
(§6) Plates were stacked 3 high, covered with a lid on the top plate, placed in plastic bags, and incubated at 35° C. for approximately 20 hours. Following incubation, the microplates were removed from the incubator and viewed from the bottom using a ScienceWare plate viewer. Prepared reading sheets were marked for the MIC of drug 1 (row H), the MIC of drug 2 (column 8) and the wells of the growth-no growth interface.

Staphylococcus aureus = assay: MIC, broth microdilution (Example 1); format: cell-based
Experimental: as §1, §2, §3, §4, §5, §6

Streptococcus pyogenes = assay: MIC, broth microdilution (Example 1); format: cell-based
Experimental: as §1, §2, §3, §4, §5, §6

HA-MRSA = assay: Susceptibility testing MIC/MBC, broth microdilution (Example 3); format: cell-based, Staphylococcus aureus; conditions: for MIC50 / MIC90 / MBC / MIC: Staphylococcus aureus; for MIC50: read-out: MIC50; for MIC90: read-out: MIC90; for MBC: read-out: MBC; for MIC: read-out: MIC
Experimental: Two hundred clinical HA-MRSA isolates, harboring the SCCmecIV type, were evaluated for susceptibility testing. […] Four strains, including 1 hVISA and 1 VISA, characterized by population analysis profile and Macro Etest were selected for time-kill analysis.
Trypose soy agar (TSA; Difco, Detroit, Mich.) was used for colony counting.
Minimum inhibitory concentrations (MIC) and minimum bactericidal concentrations (MBC) were determined by broth microdilution for all antimicrobials, according to the Clinical and Laboratory Standards Institute (CLSI) guidelines (Clinical and Laboratory Standards Institute. 2006. Methods for Dilution Antimicrobial Susceptibility Tests for Bacteria That Grow Aerobically; Approved Standard. 7th ed. Wayne, Pa.: CLSI). MBC values were determined by plating of aliquots of 5 μL from clear wells onto TSA. All susceptibility testing were performed in duplicate.

[1] = Staphylococcus aureus, ATCC29213, S. aureus 0100 (ATCC 29213), FIC control, read-out: MIC
[2] = Enterococcus faecalis, E. faecalis 0795 (VSE), read-out: MIC
[3] = Enterococcus faecalis, E. faecalis 0796 (VSE), read-out: MIC
[4] = Staphylococcus aureus, MRSA, S. aureus 0765 (MRSA), read-out: MIC
[5] = Staphylococcus aureus, MRSA, S. aureus 2053 (MRSA), read-out: MIC
[6] = Staphylococcus aureus, MSSA, S. aureus 0753 (MSSA), read-out: MIC
[7] = Staphylococcus aureus, MSSA, S. aureus 2063 (MSSA), read-out: MIC
[8] = Streptococcus pyogenes, S. pyogenes 0717, read-out: MIC
[9] = Streptococcus pyogenes, S. pyogenes 0722, read-out: MIC
[10] = MRSA / VISA, HA-MRSA isolate R2303 (VISA)
[11] = MRSA, HA-MRSA isolate R3875 (hVISA)

| MIC (Enterococcus faecalis; [2]) | MIC (Enterococcus faecalis; [3]) | MIC (Staphylococcus aureus; [4]) | MIC (Staphylococcus aureus; [5]) | MIC (Staphylococcus aureus; [6]) | MIC (Staphylococcus aureus; [7]) | MIC (Streptococcus pyogenes; [8]) | MIC (Streptococcus pyogenes; [9]) | % of Isolates with MIC 0.25 μg/mL (HA-MRSA; 200 HA-MRSA isolates) | % of Isolates with MIC 0.5 μg/mL (HA-MRSA; 200 HA-MRSA isolates) | % of Isolates with MIC 1 μg/mL (HA-MRSA; 200 HA-MRSA isolates) | % of Isolates with MIC ≧4 μg/mL (HA-MRSA; 200 HA-MRSA isolates) | MIC range (HA-MRSA; 200 HA-MRSA isolates) | MIC50 (HA-MRSA; MRSA, 200 HA-MRSA isolates) | SMILES | MIC (Staphylococcus aureus; [1]) | % of Isolates with MBC 0.5 μg/mL (HA-MRSA; 200 HA-MRSA isolates) | % of Isolates with MBC 1 μg/mL (HA-MRSA; 200 HA-MRSA isolates) | % of Isolates with MBC 2 μg/mL (HA-MRSA; 200 HA-MRSA isolates) | % of Isolates with MBC ≧4 μg/mL (HA-MRSA; 200 HA-MRSA isolates) | MBC range (HA-MRSA; 200 HA-MRSA isolates) | other results |
| --- | --- | --- | --- | --- | --- | --- | --- | --- | --- | --- | --- | --- | --- | --- | --- | --- | --- | --- | --- | --- | --- |
| – | – | – | – | – | – | – | – | – | – | – | – | – | – | O=C(O)c1cn(C2CC2)c2cc(N3CCNCC3)c(F)cc2c1=O [Ciprofloxacin] | 0.25 to 0.5 µg/mL | – | – | – | – | – | MIC (Enterococcus faecalis; E. faecalis 0101 (ATCC 29212), FIC control): 1 µg/mL and 0.5 µg/mL; MIC (Enterococcus faecalis; Enterococcus faecalis, ATCC29212, E. faecalis 0101 (ATCC 29212), FIC control, read-out: MIC): 0.5 to 1 µg/mL; MIC (Staphylococcus aureus; S. aureus 0100 (ATCC 29213), FIC control): 0.50 µg/mL and 0.25 µg/mL |
| – | – | – | – | – | – | – | – | – | – | – | – | – | – | O=C(O)[C@H]1/C(=C/CO)O[C@@H]2CC(=O)N21 [Clavulanate] | > 16 µg/mL | – | – | – | – | – | – |
| 1 µg/mL | 2 µg/mL | 0.5 µg/mL | 0.5 µg/mL | 0.5 µg/mL | 1 µg/mL | 0.05 µg/mL | 0.06 µg/mL | 58.5% | 20.5% | 1% | 0.5% | 0.125 to 4 µg/mL | 0.25 µg/mL (≈ 0.154 µM) | CCCCCCCCCC(=O)N[C@@H](Cc1c[nH]c2ccccc12)C(=O)N[C@H](CC(N)=O)C(=O)N[C@@H](CC(=O)O)C(=O)N[C@@H]1C(=O)NCC(=O)N[C@@H](CCCN)C(=O)N[C@@H](CC(=O)O)C(=O)N[C@H](C)C(=O)N[C@@H](CC(=O)O)C(=O)NCC(=O)N[C@H](CO)C(=O)N[C@@H]([C@H](C)CC(=O)O)C(=O)N[C@@H](CC(=O)c2ccccc2N)C(=O)O[C@@H]1C [Daptomycin] | – | 35% | 5% | 2.5% | 0.5% | 0.125 to 4 µg/mL | MIC (Streptococcus pyogenes; S. pyogenes 0717): 0.06 µg/mL; % of Isolates with MBC 0.25 μg/mL (HA-MRSA; 200 HA-MRSA isolates): 47.5%; % of Isolates with MBC […] (HA-MRSA; 200 HA-MRSA isolates): 9.5%; % of Isolates with MIC […] (HA-MRSA; 200 HA-MRSA isolates): 19.5%; MIC90 (HA-MRSA; 200 HA-MRSA isolates): 0.5 µg/mL (≈ 0.309 µM) |
| 2 µg/mL | 4 µg/mL | 4 µg/mL | 2 µg/mL | 4 µg/mL | 4 µg/mL | 1 µg/mL | 1 µg/mL | 9.5% | 16% | 15.5% | 11.5% | 0.25 to 4 µg/mL | 2 µg/mL (≈ 5.93 µM) | CC(=O)NC[C@H]1CN(c2ccc(N3CCOCC3)c(F)c2)C(=O)O1 [Linezolid] | – | 1.5% | 12% | 13.5% | 73% | 0.5 to 64 µg/mL | MIC (Enterococcus faecalis; Enterococcus faecalis, VRE, E. faecalis 0847 (VRE), read-out: MIC): 2 µg/mL; MIC (Enterococcus faecalis; Enterococcus faecalis, VRE, E. faecalis 0849 (VRE), read-out: MIC): 2 µg/mL; % of Isolates with MIC 2 μg/mL (HA-MRSA; 200 HA-MRSA isolates): 47.5%; MIC90 (HA-MRSA; 200 HA-MRSA isolates): 4 µg/mL (≈ 11.9 µM) |
| – | – | – | – | – | – | – | – | – | – | – | – | – | – | NC[C@H]1O[C@H](O[C@H]2[C@H](O)[C@@H](O[C@H]3O[C@H](CO)[C@@H](O)[C@H](N)[C@H]3O)[C@H](N)C[C@@H]2N)[C@H](N)C[C@@H]1O [Tobramycin] | – | – | – | – | – | – | MBC (HA-MRSA; [10]): 0.5 µg/mL (≈ 1.07 µM); MIC (HA-MRSA; [10]): 0.125 µg/mL (≈ 0.267 µM); MBC (HA-MRSA; MRSA, HA-MRSA isolate R3804): 1 µg/mL (≈ 2.14 µM); MIC (HA-MRSA; MRSA, HA-MRSA isolate R3804): 0.5 µg/mL (≈ 1.07 µM); MBC (HA-MRSA; [11]): 0.5 µg/mL (≈ 1.07 µM); MIC (HA-MRSA; [11]): 0.5 µg/mL (≈ 1.07 µM); MBC (HA-MRSA; MRSA, HA-MRSA isolate R4039): 1 µg/mL (≈ 2.14 µM); MIC (HA-MRSA; MRSA, HA-MRSA isolate R4039): 1 µg/mL (≈ 2.14 µM) |
